This data set in a line: [^18F]-PBR111 metabolite analysis in plasma (solid phase extraction). The format is in vivo, rat. The settings on record: 50-min post-injection. An excerpt: To establish a standard curve of [^18F]-PBR111 metabolism, blood samples were obtained in four control rats (304 ± 10 g) and six KASE rats (312 ± 8 g, minor to medium SE), which were maintained under anaesthesia to mimic the conditions of the PET scan (Table 1). Animals were anaesthetised with 5% isoflurane for induction and 1% to 3% for maintenance, administered in medical oxygen. An incision was made in the inner thigh of the hind leg, and the femoral artery was exposed and loosely tied off after blunt dissection of the surrounding tissue. A polyethylene cannula filled with heparinised saline (20 IU/ml) was placed into the femoral artery and threaded 3 cm proximally.
Animals were injected intravenously with [^18F]-PBR111 (injected dose (ID) = 14.1 to 38.7 MBq). […] The line was flushed with saline, and the remaining radioactivity was measured in the line and syringe. […] Plasma samples (0.1 ml) were weighed and the radioactivity was measured in a Wallac γ-counter. […]
SPE analysis was performed on Oasis cartridges (Waters Oasis® HLB, 30 μm, 60 mg) that were preconditioned with 1 ml ethanol followed by 5 ml water. […] The radioactivity in each fraction and that remaining on the cartridge was measured with a Wallac γ-counter. Data were expressed as the percentage of unmetabolised parent compound (^18F]-PBR111) in the plasma sample. […]

The results in this text go back to publication PMC3570346, “PET imaging of brain inflammation during early epileptogenesis in a rat model of temporal lobe epilepsy” (EJNMMI Research, 2012).

For `CCN(CC)C(=O)Cc1c(-c2ccc(OCCC[18F])cc2)nc2ccc(Cl)cn12` [[^18F]-PBR111], the “Percentage of parent compound in plasma” value (control animals) worked out at 20.8 ± 1.3% and the “Percentage of parent compound in plasma” value (severe SE animals) is given as 20.1 ± 1.3%.
